According to PMC10205807, “Cross-species comparison in nonclinical pharmacokinetics of lenvatinib by a simple HPLC with ultraviolet detection” (Scientific Reports, 2023):

Legend:
[1] = test system: plasma protein; experiment: plasma unbound fraction, humans; assay type: in vitro ADME; conditions: human
[2] = PK study in mice (intravenous and oral); assay type: in vivo
Experimental: Female BALB/cAnNCrj-nu/nu mice were purchased from Charles River Laboratories (Kanagawa, Japan) and were acclimatized for 9 days prior to use in the PK study. At the dosing day, 7-week-old mice were used. E7080 was dissolved in 5% glucose injection to make a 0.3 mg/mL solution for intravenous administration and dissolved in water to make 0.3, 1, and 3 mg/mL solutions for oral administrations. Lenvatinib was intravenously administered at the dose of 3 mg/kg via the tail vein using a disposable syringe and oral administration was performed by gastric gavage at the doses of 3, 10, and 30 mg/kg at the dosing volume of 10 mL/kg (n = 3/time point/dose). Whole blood samples were drawn from the vena cava using heparinized syringes at 5, 15, and 30 min, and 1, 2, 4, 6, 8, 12, and 24 h postdose. Plasma samples were obtained by centrifugation and aliquots of plasma were transferred to a tube and stored below − 15 °C until assayed.
PK parameters of lenvatinib were estimated by model independent analysis using a WinNonlin program (Version 4.1, Pharsight Corporation, Mountain View, CA). The time to reach the maximum plasma concentration (Tmax) and the maximum plasma concentration (Cmax) values were obtained directly from the plasma concentration data. Terminal half-life (T1/2) was calculated by ln2/ke, where ke is the slope of the regression line that fits the portion of the terminal phase (at least three time points) in the log-linear concentration–time curve. AUC0–t and AUMC0–t, the area under the concentration–time curves and the area under the first moment curve, from time = zero to time = t, respectively, were calculated using the lenvatinib concentrations in plasma by the linear/log trapezoidal method. AUC0–inf was calculated by AUC0–t + Ct/ke, and AUMC0–inf was AUMC0–t + Ct × t/ke + Ct/(ke)^2, where Ct is the last measurable concentration at time = t. The plasma concentration at time zero for the intravenous dose was extrapolated, while zero was used for the oral doses. Mean residence time (MRT), total plasma clearance (CLtot) and the volume of distribution at steady state (Vdss) were calculated by AUMC0–inf/AUC0–inf, Dose/AUC0–inf and CLtot × MRT, respectively. Oral bioavailability (F) was estimated by comparing dose-normalized AUC0–inf after oral (AUC0–inf.po) and intravenous (AUC0–inf.iv) administration as follows: F (%) = (AUC0–inf.po/AUC0–inf.iv) × 100.

[3] = Stability of lenvatinib in dog plasma and processed samples; assay type: physicochemical, dogs; conditions: dog plasma; for Freeze/thaw stability, mean percentage bias from the theoretical values: 3 cycles
Experimental: Calibration samples and QC samples for the reproducibility assessment were prepared by spiking 0.05 mL of the working standard solutions to blank plasma (0.05 mL), and QC samples for the stability assessment were prepared by fortifying 0.05 mL of the solution to 1.5 mL of bank plasma. Lenvatinib concentrations in plasma were 0.005, 0.01, 0.03, 0.1, 0.3, 1, 3, 10, 30, and 100 μg/mL for the calibration samples, and were 0.005, 0.01, 1, and 100 μg/mL for the QC samples for reproducibility assessment. Lenvatinib concentrations of QC samples for the stability assessment were 0.01, 1, and 80 μg/mL.
The developed method for the determination of lenvatinib concentrations in plasma was validated and the following validation parameters including linearity, selectivity, intra- and inter-batch reproducibility, extraction recovery, and stability were evaluated in accordance with the bioanalytical guidelines by United States Food and Drug Administration (US-FDA)[7]. […] In the linearity assessment, accuracy of each calibration sample was determined to ensure that relative error (RE) at each concentration was within ± 15% (within ± 20% at the LLOQ). […] Intra-batch accuracy and precision were evaluated using QC samples at the four concentrations, LLOQ, low QC (LQC), mid QC (MQC), and ULOQ. […] Inter-batch accuracy and precision were evaluated by testing a single sample at each concentration across five batches (n = 5 in total). […] Extraction recoveries of lenvatinib and the IS from plasma samples of the four species were evaluated. The recoveries of lenvatinib at the low, mid, and high QC levels (triplicates per concentration), and that of the IS (0.5 μg/mL) were determined. […] Stability of lenvatinib in plasma and processed samples was assessed at the low and high QC levels. Lenvatinib concentrations in samples after storage were compared to the theoretical concentrations and RE values were calculated. […] Freeze–thaw stability in plasma was evaluated up to three freeze–thaw cycles and frozen stability in plasma was evaluated at − 15 °C or below for 4 weeks (mice, rats, and dogs) or 6 weeks (monkeys). […]

[4] = female, BALB/cAnNCrj-nu/nu, mouse, plasma, intravenous 3 mg/kg
[5] = female, BALB/cAnNCrj-nu/nu, mouse, plasma, oral 3 mg/kg
[6] = female, BALB/cAnNCrj-nu/nu, mouse, plasma, oral 10 mg/kg
[7] = female, BALB/cAnNCrj-nu/nu, mouse, plasma, oral 30 mg/kg

Q: Which fraction unbound [1] does the source give for `COc1cc2nccc(Oc3ccc(NC(=O)NC4CC4)c(Cl)c3)c2cc1C(N)=O` [lenvatinib, Lenvatinib] here?
A: 0.0172

Q: What about the “CLint (hepatic intrinsic clearance)” value ([2]; estimated from oral PK, Fa and Fg assumed unity, BW 0.02 kg) of the same compound?
A: 325 mL/h

Q: And the AUC(0-inf) [2, 4]?
A: 8690 ng·h/mL

Q: And the MRT [2, 4]?
A: 2.07 h

Q: What about the C0 ([2]; female, BALB/cAnNCrj-nu/nu, mouse, plasma, intravenous 3 mg/kg, extrapolated) of the same compound?
A: 8290 ng/mL

Q: What about the clearance ([2]; female, BALB/cAnNCrj-nu/nu, mouse, plasma, intravenous 3 mg/kg, read-out: CLtot (converted)) of the same compound?
A: 5.75 mL/min/kg

Q: And the Vd ([2]; female, BALB/cAnNCrj-nu/nu, mouse, plasma, intravenous 3 mg/kg, read-out: Vdss)?
A: 0.714 L/kg

Q: And the half-life ([2]; female, BALB/cAnNCrj-nu/nu, mouse, plasma, iv, 3 mg/kg, intravenous 3 mg/kg)?
A: 2.05 h

Q: What about the AUC(0-inf) [2, 5] of the same compound?
A: 5600 ng·h/mL

Q: What about the Cmax [2, 5] of the same compound?
A: 1970 ng/mL

Q: And the MRT [2, 5]?
A: 3.28 h

Q: What about the Tmax [2, 5] of the same compound?
A: 0.5 h

Q: What about the bioavailability ([2]; female, BALB/cAnNCrj-nu/nu, mouse, plasma, oral 3 mg/kg vs intravenous 3 mg/kg, read-out: F (oral bioavailability)) of the same compound?
A: 64.4%

Q: And the AUC(0-inf) [2, 6]?
A: 27700 ng·h/mL

Q: And the Cmax [2, 6]?
A: 10500 ng/mL

Q: What about the MRT [2, 6] of the same compound?
A: 3.01 h

Q: What about the Tmax [2, 6] of the same compound?
A: 0.5 h

Q: What about the AUC(0-inf) [2, 7] of the same compound?
A: 118000 ng·h/mL

Q: What about the Cmax [2, 7] of the same compound?
A: 31300 ng/mL

Q: And the MRT [2, 7]?
A: 3.29 h

Q: And the Tmax [2, 7]?
A: 1 h

Q: What about the half-life ([2]; female, BALB/cAnNCrj-nu/nu, mouse, plasma, po, 3 mg/kg, oral 3 mg/kg) of the same compound?
A: 2.09 h

Q: What about the half-life ([2]; female, BALB/cAnNCrj-nu/nu, mouse, plasma, po, 10 mg/kg, oral 10 mg/kg) of the same compound?
A: 1.74 h

Q: What about the half-life ([2]; female, BALB/cAnNCrj-nu/nu, mouse, plasma, po, 30 mg/kg, across 3, 10, and 30 mg/kg) of the same compound?
A: 1.74 to 2.09 h

Q: What about the half-life ([2]; female, BALB/cAnNCrj-nu/nu, mouse, plasma, po, 30 mg/kg, oral 30 mg/kg) of the same compound?
A: 1.85 h

Q: And the “Freeze/thaw stability, mean percentage bias from the theoretical values” ([3]; HQC 80 μg/mL)?
A: 0.6%

Q: What about the “Freeze/thaw stability, mean percentage bias from the theoretical values” ([3]; MQC 1 μg/mL) of the same compound?
A: 1.5%

Q: And the “Frozen stability, mean percentage bias from the theoretical values” ([3]; below − 15 °C, 4 weeks, HQC 80 μg/mL)?
A: 3.1%
